Measurements taken from US4684665A, “Sebosuppressive benzoic acid ester derivatives and cosmetic preparations containing them” (Henkel Kommanditgesellschaft auf Aktien, priority 1985, dated 1987).

Tested on: accumulation of sebum
Experiment: Anti-seborrheic activity on the shaved back of rats (browning, second evaluation method), % sebum reduction
Type: in vivo
Settings: topical, once daily on 9 of 14 days, male Wistar rats, treated side vs untreated control group; for % Sebum reduction at the indicated concentration of active substance: 0.02%: 0.02 wt. % in alcohol; for % Sebum reduction at the indicated concentration of active substance: 0.05%: 0.05 wt. % in alcohol; for % Sebum reduction at the indicated concentration of active substance: 0.1%: 0.1 wt. % in alcohol
Excerpt: Male Wistar rats having a body weight ranging from 220 to 230 g at the beginning of the tests were used as the test animals. The accumulation of sebum in the test animals was examined by visually observing the degree of browning on the shaved back of the rats. Browning is caused by the accumulation of the brown skin surface lipid secreted by the rats. This test is based on the observation that young female rats, as well as male rats washed with a surfactant solution or with a lipid solvent or male rats systematically treated with estrogens show only a normal light, pink-colored skin after shaving, while at the same time, only comparatively very small quantities of lipids can be extracted from the shaved hairs.
In order to assess the anti-seborrheic effectiveness of the alkoxy and alkylbenzyloxy benzoic acid esters of the present invention, alcoholic solutions of test substances (B), (E), (F), (H) and (I) were each brushed onto one side of the back of 6 rats. The benzoic acid ester derivatives tested were applied in concentrations ranging from 0.02 to 0.1 wt. % in the alcohol.
The test period consisted of 14 days. The test substances were applied, once daily on 9 of the 14 days. A second group of 6 rats which were not treated was used as an additional control. At the end of the test period, the backs and sides of the animals were shaved and visually inspected. The examination was done independently by an evaluation panel composed of 6 people using double blind techniques.
A second criterion of evaluation is the intensity of the brown coloration in the shaved area. The following scale is used for this analysis:
According to this second method of evaluation, differences in the total points between the untreated control animals and the treated and untreated sides (ΔP) of the test animals respectively are calculated. Significant differences between the total point values assigned to the control animals and the values assigned to the treated side of the test animals again indicate the antiseborrheic effectiveness of a substance.
The results are presented in terms of sebum reduction percentage. The sebum reduction percentage is calculated from the point differences by determining the quotient of the difference in total points between the control group and the treated side of the test animals (ΔP) and the total number of points for the control group (Pk) and then expressing the value obtained in percent. [formula]

Molecule | % Sebum reduction at the indicated concentration of active substance: 0.02% | % Sebum reduction at the indicated concentration of active substance: 0.05% | % Sebum reduction at the indicated concentration of active substance: 0.1%
4-isotridecyloxy-benzoic acid methylester | 83% | 83% | –
CCCCCCCCCCCCOc1ccc(C(=O)OC)cc1 [4-dodecyloxy benzoic acid methyl ester, reference compound] | – | 0% | 18%
CCCCCCCCCCCCOc1ccc(C(=O)OCCCO)cc1 [4-dodecyloxy benzoic acid-3-hydroxypropyl ester, reference compound] | – | 18% | 33%
COC(=O)c1ccc(OCCC(C)CC(C)(C)C)cc1 (stereo not drawn) [Compound B, 4-(3,5,5-trimethylhexyloxy)-benzoic acid methylester] | – | 36% | 76%
COC(=O)c1ccc(OCc2ccc(C(C)(C)C)cc2)cc1 [Compound E, 4-(4-tert-butylbenzyloxy)-benzoic acid methylester] | 10% | 77% | –
CCCCCCCCCCCCOCCOc1ccc(C(=O)OC)cc1 [F, 4-(2-dodecyloxyethoxy)-benzoic acid methylester] | – | 63% | –
CCCCCCCCCCCCOCCOc1ccc(C(=O)OCCCO)cc1 [H, 4-(2-dodecyloxy-ethoxy)-benzoic acid-3-hydroxypropyl ester] | – | 71% | –
